Laboratory results taken from patent US20150196500A1, “Treatment of Mitochondria-Related Diseases and Improvement of Age-Related Metabolic Deficits” (PHILERA NEW ZEALAND LIMITED, priority 2005, published 2015).
Entries after “also recorded” stand apart in the source; their conditions may differ. Read-outs that look alike come from different tables or passages of the source.

Legend:
[1] = system: mitochondria isolated from hearts of obese ZDF rats and lean littermates; assay type: cell-based, rat
[2] = system: cytochrome c release from mitochondria isolated from lean (non-diabetic) ZDF rats; experiment: Cytochrome c release from isolated mitochondria, Western blot; assay type: cell-based, rat; settings: for cytochrome c release into supernatant: 5 mM alone, 30 min incubation
[3] = system: citrate synthase in mitochondria isolated from lean (non-diabetic) ZDF rats; experiment: Residual citrate synthase activity in mitochondrial pellets (marker of inner membrane integrity); assay type: cell-based, rat
Method: An enzyme assay was then used to evaluate the mitochondrial pellets to determine the contents of the matrix protein citrate synthase in order to evaluate the integrity of the mitochondria after the respective incubations. Citrate synthase activity was determined according to the methods decscribed in Newsholme and Crabtree, J. Exp. Zoo. 239(2): 159-67 (1986). In brief, frozen mitochondrial pellets were resuspended in a reaction mixture containing 50 mM Tris-HCl (pH8.0), 0.1 mM acetyl coenzyme A and 0.2 mM 5,5′-dithiobis-(2-nitrobenzoic acid) (DTNB). Reactants were incubated for five minutes prior to measurement and the assay started by the addition of 5 mM oxaloacetate. Absorbance of DTNB was then followed at 412 nm and units were calculated relative to soluble protein using the biccichonic acid method (BCA, Pierce) with bovine serum albumin as standard.

[4] = system: electron transport chain complexes I to V of left ventricle mitochondria; settings: rat, in vivo
Method: Male Wistar rats (starting body weight from about 200 to about 250 g) were maintained on Teklad TB 2108 (Harlan UK) rat chow and tap water ab libitum. At eight weeks the rats were randomized into two groups: control and diabetic (STZ). Rats were made diabetic by injection with 60 mg/kg STZ and the control rats were given a corresponding amount of 0.9% sodium chloride.
The control groups received Milli-Q water ab libitum during the corresponding period. At the end of the eleven week treatment period, rats were anaesthetized with isoflurane, the abdominal cavity was opened and a catheter inserted into the vena cava. Approximately 1 mL of blood was removed for future analysis and 10000 U/Kg heparin infused. […]
Fiber respiration was then measured in a respirometer at 30° C. at high resolution using Clark-type electrodes and integrated software that was used for data acquisition and analysis (DatLab 4, Oroboros, Oxygraph; Innsbruck, Austria). […] Respiratory rates (oxygen fluxes) were expressed as pmol O2. […]
Respiratory flux rates through complex I (GM2 and GM3), complexes I and II (GMS3) and II (S3) were determined to measure the intactness of the individual complexes (GM3 and S3), and to estimate maximal flux rates through the electron transport chain.

[5] = in the presence of 5 mM spermine

| SMILES | change in mitochondrial volume [1] | effect on swelling at concentrations above 0.625 mM [1] | relative inhibition of Ca2+ induced swelling among the three polyamines [1] | cytochrome c release into supernatant [2] | incubation time to maximum release of cytochrome c ([2]; data not shown) [min] | residual citrate synthase activity ([3]; 5 mM alone) | residual citrate synthase activity ([3]; lower concentrations than 5 mM) | change in mitochondrial volume ([1]; 0-5 mM, no CaCl2, 30 minutes, diabetic or control mitochondria) | effect on swelling at concentrations above 0.625 mM ([1]; 150 μM CaCl2, mitochondria from obese and lean rats) | cytochrome c release on co-incubation with 5 mM spermine ([2]; 5 mM spermine plus test polyamine) | concentration dependence of diminished cytochrome c release ([2]; […] vs 5 mM, with 5 mM spermine) | residual citrate synthase activity ([3]; 5 mM alone, after 30 min) | citrate synthase activity in spermine treated mitochondria [3, 5] | relative potency in improving residual citrate synthase activity [3, 5] | cytochrome C oxidase flux (TMPD plus ascorbate) [4] | respiration flux rates of control treated mitochondria [4] |
| --- | --- | --- | --- | --- | --- | --- | --- | --- | --- | --- | --- | --- | --- | --- | --- | --- |
| NCCCNCCCCNCCCN [spermine] | led to swelling of mitochondria | induced swelling; also recorded: appears to induce swelling | greatest inhibition of swelling | release of large amounts of cytochrome c | 30 | rapid loss of citrate synthase activity | less severe impact on the residual citrate synthase activity | – | – | – | – | – | – | – | – | – |
| NCCCCNCCCN [spermidine] | – | – | – | caused cytochrome c release at 5 mM, albeit less than in the case of spermine | – | – | – | no detectable change in mitochondrial volume | continued to have a protective effect; also recorded: continue to protect mitochondria from swelling | reduced, though to a lesser degree; also recorded: diminished cytochrome c release | less potent than when 5 mM was used | increased amounts of residual citrate synthase activity compared to control samples | improved citrate synthase activity, although not as effectively; also recorded: capable of improving residual citrate synthase activity | markedly less potent than triethylenetetramine dihydrochloride | – | – |
| NCCNCCNCCN.O=C(O)CCC(=O)O.O=C(O)CCC(=O)O [triethylenetetramine disuccinate] | – | – | – | – | – | – | – | – | – | – | – | – | – | – | significant improvement in cytochrome C oxidase | No significant effect |
